Data: paper PMC9090415, “Discovery of small molecule inhibitors of Plasmodium falciparum apicoplast DNA polymerase” (Journal of Enzyme Inhibition and Medicinal Chemistry, 2022)

Molecular target: T1, bacteriophage T4 DNA polymerase (Enterobacteria phage T4, UniProt P04415)
T1 construct: made in house
T1 sequence (P04415 1-898): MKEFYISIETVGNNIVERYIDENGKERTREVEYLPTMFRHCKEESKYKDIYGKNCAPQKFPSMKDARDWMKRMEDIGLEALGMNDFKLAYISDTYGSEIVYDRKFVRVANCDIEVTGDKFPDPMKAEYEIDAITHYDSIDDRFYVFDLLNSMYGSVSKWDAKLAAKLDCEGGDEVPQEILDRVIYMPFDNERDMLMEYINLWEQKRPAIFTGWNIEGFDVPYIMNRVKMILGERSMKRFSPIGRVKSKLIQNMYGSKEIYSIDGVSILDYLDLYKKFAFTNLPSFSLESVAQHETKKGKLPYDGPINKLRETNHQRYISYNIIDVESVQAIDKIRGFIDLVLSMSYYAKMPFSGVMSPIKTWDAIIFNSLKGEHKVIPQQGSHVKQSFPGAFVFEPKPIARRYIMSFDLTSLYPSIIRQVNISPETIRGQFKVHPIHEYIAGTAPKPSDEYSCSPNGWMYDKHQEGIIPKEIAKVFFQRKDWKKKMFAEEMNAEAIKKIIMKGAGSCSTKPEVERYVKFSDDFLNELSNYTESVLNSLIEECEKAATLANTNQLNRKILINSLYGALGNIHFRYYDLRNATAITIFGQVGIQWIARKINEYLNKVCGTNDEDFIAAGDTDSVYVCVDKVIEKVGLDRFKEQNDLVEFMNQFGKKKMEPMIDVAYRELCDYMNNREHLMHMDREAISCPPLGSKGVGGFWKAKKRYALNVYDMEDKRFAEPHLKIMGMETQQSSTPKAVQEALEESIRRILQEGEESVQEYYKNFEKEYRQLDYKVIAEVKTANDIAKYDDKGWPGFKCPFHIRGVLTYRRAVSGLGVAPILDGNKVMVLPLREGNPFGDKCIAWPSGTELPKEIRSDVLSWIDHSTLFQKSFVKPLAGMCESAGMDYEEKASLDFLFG
Assay: Counter-screen against bacteriophage T4 DNA polymerase
Assay type: biochemical
Settings: for % inhibition T4 10' 2.5 / % inhibition T4 10' 5 / % inhibition T4 10' 10 / % inhibition T4 10' 20 / % inhibition T4 10' 40 / % inhibition T4 10' 80: read at 10'; for % inhibition T4 70' 2.5 / % inhibition T4 70' 5 / % inhibition T4 70' 10 / % inhibition T4 70' 20 / % inhibition T4 70' 40 / % inhibition T4 70' 80: read at 70'; for % inhibition T4 130' 2.5 / % inhibition T4 130' 5 / % inhibition T4 130' 10 / % inhibition T4 130' 20 / % inhibition T4 130' 40 / % inhibition T4 130' 80: read at 130'; for % inhibition T4 40' 2.5 / % inhibition T4 40' 5 / % inhibition T4 40' 10 / % inhibition T4 40' 20 / % inhibition T4 40' 40 / % inhibition T4 40' 80: read at 40'; for % inhibition T4 90' 2.5 / % inhibition T4 90' 5 / % inhibition T4 90' 10 / % inhibition T4 90' 20 / % inhibition T4 90' 40 / % inhibition T4 90' 80: read at 90'; for % inhibition T4 180' 2.5 / % inhibition T4 180' 5 / % inhibition T4 180' 10 / % inhibition T4 180' 20 / % inhibition T4 180' 40 / % inhibition T4 180' 80: read at 180'
How it was run: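 Purified T4 DNA polymerase, a B-family enzyme, served as the counter-screen enzyme. Compounds were tested in dose-response format and IC50 values were derived.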

O=C(c1ccccc1)N1CCc2c(nc3cc(-c4ccccc4)[nH]n3c2=O)C1 [Molecule 30, O=C(N1CCc2c(C1)nc1n(c2=O)[nH]c(c1)c1ccccc1)c1ccccc1]
% inhibition T4 10' 2.5 (DRC-1, concentration 2.5): -1.603% | % inhibition T4 10' 5 (DRC-1, concentration 5): -4.492% | % inhibition T4 10' 10 (DRC-1, concentration 10): -6.45% | % inhibition T4 10' 20 (DRC-1, concentration 20): 0.1503% | % inhibition T4 10' 40 (DRC-1, concentration 40): 0.9641% | % inhibition T4 10' 80 (DRC-1, concentration 80): -0.6394% | % inhibition T4 70' 2.5 (DRC-1, concentration 2.5): -4.009% | % inhibition T4 70' 5 (DRC-1, concentration 5): -7.504% | % inhibition T4 70' 10 (DRC-1, concentration 10): -7.7135% | % inhibition T4 70' 20 (DRC-1, concentration 20): -3.401% | % inhibition T4 70' 40 (DRC-1, concentration 40): -0.06602% | % inhibition T4 70' 80 (DRC-1, concentration 80): -5.584% | % inhibition T4 130' 2.5 (DRC-1, concentration 2.5): -6.3102% | % inhibition T4 130' 5 (DRC-1, concentration 5): -10.6574% | % inhibition T4 130' 10 (DRC-1, concentration 10): -9.449% | % inhibition T4 130' 20 (DRC-1, concentration 20): -6.067% | % inhibition T4 130' 40 (DRC-1, concentration 40): -1.0022% | % inhibition T4 130' 80 (DRC-1, concentration 80): -9.233% | % inhibition T4 10' 2.5 (DRC-2, concentration 2.5): 1.68% | % inhibition T4 10' 5 (DRC-2, concentration 5): -13% | % inhibition T4 10' 10 (DRC-2, concentration 10): -11% | % inhibition T4 10' 20 (DRC-2, concentration 20): -20% | % inhibition T4 10' 40 (DRC-2, concentration 40): -17% | % inhibition T4 10' 80 (DRC-2, concentration 80): -22% | % inhibition T4 40' 2.5 (DRC-2, concentration 2.5): 1.68% | % inhibition T4 40' 5 (DRC-2, concentration 5): -13% | % inhibition T4 40' 10 (DRC-2, concentration 10): -11% | % inhibition T4 40' 20 (DRC-2, concentration 20): -20% | % inhibition T4 40' 40 (DRC-2, concentration 40): -17% | % inhibition T4 40' 80 (DRC-2, concentration 80): -22% | % inhibition T4 90' 2.5 (DRC-2, concentration 2.5): 1% | % inhibition T4 90' 5 (DRC-2, concentration 5): -13% | % inhibition T4 90' 10 (DRC-2, concentration 10): -10% | % inhibition T4 90' 20 (DRC-2, concentration 20): -17% | % inhibition T4 90' 40 (DRC-2, concentration 40): -15% | % inhibition T4 90' 80 (DRC-2, concentration 80): -21% | % inhibition T4 180' 2.5 (DRC-2, concentration 2.5): -2.79% | % inhibition T4 180' 5 (DRC-2, concentration 5): -16% | % inhibition T4 180' 10 (DRC-2, concentration 10): -13% | % inhibition T4 180' 20 (DRC-2, concentration 20): -19% | % inhibition T4 180' 40 (DRC-2, concentration 40): -15% | % inhibition T4 180' 80 (DRC-2, concentration 80): -21%

O=C(O)CCS(=O)(=O)c1ccc(-c2ccc(S(=O)(=O)CCC(=O)O)cc2)cc1 [Molecule 32, OC(=O)CCS(=O)(=O)c1ccc(cc1)c1ccc(cc1)S(=O)(=O)CCC(=O)O]
% inhibition T4 10' (DRC-2, concentration 2.5): -14% | % inhibition T4 40' (DRC-2, concentration 20): -22% | % inhibition T4 40' (DRC-2, concentration 40): -14% | % inhibition T4 90' (DRC-2, concentration 5): -25% | % inhibition T4 90' (DRC-2, concentration 20): -25% | % inhibition T4 90' (DRC-2, concentration 40): -17% | % inhibition T4 180' (DRC-2, concentration 2.5): -25% | % inhibition T4 180' (DRC-2, concentration 40): -22% | % inhibition T4 180' (DRC-2, concentration 80): -17%

Cn1nc(-c2nnc(-c3ccccc3F)o2)c2c1CCN(C(=O)c1ccccc1Cl)C2 [Molecule 34, Cn1nc(c2c1CCN(C2)C(=O)c1ccccc1Cl)c1nnc(o1)c1ccccc1F]
% inhibition T4 10' 2.5 (DRC-1, concentration 2.5): -0.603% | % inhibition T4 10' 5 (DRC-1, concentration 5): -0.853% | % inhibition T4 10' 10 (DRC-1, concentration 10): 3% | % inhibition T4 10' 20 (DRC-1, concentration 20): 1.06% | % inhibition T4 10' 40 (DRC-1, concentration 40): 1.22% | % inhibition T4 10' 80 (DRC-1, concentration 80): 31% | % inhibition T4 70' 2.5 (DRC-1, concentration 2.5): -2.57% | % inhibition T4 70' 5 (DRC-1, concentration 5): -4% | % inhibition T4 70' 10 (DRC-1, concentration 10): -2% | % inhibition T4 70' 20 (DRC-1, concentration 20): -2.24% | % inhibition T4 70' 40 (DRC-1, concentration 40): -0.925% | % inhibition T4 70' 80 (DRC-1, concentration 80): 28% | % inhibition T4 130' 2.5 (DRC-1, concentration 2.5): -4% | % inhibition T4 130' 5 (DRC-1, concentration 5): -4% | % inhibition T4 130' 10 (DRC-1, concentration 10): -2.33% | % inhibition T4 130' 20 (DRC-1, concentration 20): -2.59% | % inhibition T4 130' 40 (DRC-1, concentration 40): 0.922% | % inhibition T4 130' 80 (DRC-1, concentration 80): 22% | % inhibition T4 10' 2.5 (DRC-2, concentration 2.5): 0.487% | % inhibition T4 10' 5 (DRC-2, concentration 5): -4% | % inhibition T4 10' 10 (DRC-2, concentration 10): -3% | % inhibition T4 10' 20 (DRC-2, concentration 20): 1.3% | % inhibition T4 10' 40 (DRC-2, concentration 40): 3.35% | % inhibition T4 10' 80 (DRC-2, concentration 80): 11% | % inhibition T4 40' 2.5 (DRC-2, concentration 2.5): -0.945% | % inhibition T4 40' 5 (DRC-2, concentration 5): -3.75% | % inhibition T4 40' 10 (DRC-2, concentration 10): -3% | % inhibition T4 40' 20 (DRC-2, concentration 20): 0.863% | % inhibition T4 40' 40 (DRC-2, concentration 40): 3.24% | % inhibition T4 40' 80 (DRC-2, concentration 80): 12% | % inhibition T4 90' 2.5 (DRC-2, concentration 2.5): -0.872% | % inhibition T4 90' 5 (DRC-2, concentration 5): -3.55% | % inhibition T4 90' 10 (DRC-2, concentration 10): -2.12% | % inhibition T4 90' 20 (DRC-2, concentration 20): 0.601% | % inhibition T4 90' 40 (DRC-2, concentration 40): 1.62% | % inhibition T4 90' 80 (DRC-2, concentration 80): 10% | % inhibition T4 180' 2.5 (DRC-2, concentration 2.5): -4.68% | % inhibition T4 180' 5 (DRC-2, concentration 5): -7.58% | % inhibition T4 180' 10 (DRC-2, concentration 10): -5% | % inhibition T4 180' 20 (DRC-2, concentration 20): -3.78% | % inhibition T4 180' 40 (DRC-2, concentration 40): -2.41% | % inhibition T4 180' 80 (DRC-2, concentration 80): 6%

CCCCC(=O)N1CCc2c(nc3cc(-c4ccccc4Cl)[nH]n3c2=O)C1 [Molecule 37, CCCCC(=O)N1CCc2c(C1)nc1n(c2=O)[nH]c(c1)c1ccccc1Cl]
% inhibition T4 10' (DRC-2, concentration 2.5): 6% | % inhibition T4 10' (DRC-2, concentration 5): -3% | % inhibition T4 10' (DRC-2, concentration 10): 3.42% | % inhibition T4 10' (DRC-2, concentration 20): 0.821% | % inhibition T4 10' (DRC-2, concentration 40): 4.74% | % inhibition T4 10' (DRC-2, concentration 80): 1.57% | % inhibition T4 40' (DRC-2, concentration 2.5): 6% | % inhibition T4 40' (DRC-2, concentration 5): -3% | % inhibition T4 40' (DRC-2, concentration 10): 3.42% | % inhibition T4 40' (DRC-2, concentration 20): 0.821% | % inhibition T4 40' (DRC-2, concentration 40): 4.74% | % inhibition T4 40' (DRC-2, concentration 80): 1.57% | % inhibition T4 90' (DRC-2, concentration 2.5): 5% | % inhibition T4 90' (DRC-2, concentration 40): 5%

Cc1ccccc1C(=O)N1CCc2c(nc3cc(-c4ccccc4)[nH]n3c2=O)C1 [Molecule 41, Cc1ccccc1C(=O)N1CCc2c(C1)nc1n(c2=O)[nH]c(c1)c1ccccc1]
% inhibition T4 10' (DRC-2, concentration 2.5): 10% | % inhibition T4 10' (DRC-2, concentration 5): 13% | % inhibition T4 10' (DRC-2, concentration 10): 5% | % inhibition T4 10' (DRC-2, concentration 20): -10% | % inhibition T4 10' (DRC-2, concentration 40): -26% | % inhibition T4 10' (DRC-2, concentration 80): -46% | % inhibition T4 40' (DRC-2, concentration 2.5): 10% | % inhibition T4 40' (DRC-2, concentration 5): 13% | % inhibition T4 40' (DRC-2, concentration 10): 5% | % inhibition T4 40' (DRC-2, concentration 20): -10% | % inhibition T4 40' (DRC-2, concentration 40): -26% | % inhibition T4 40' (DRC-2, concentration 80): -46%
